Test results taken from patent US8536202B2, “Triazole-substituted anthranilamides as pesticides” (Bayer Cropscience AG, priority 2010, dated 2013).
Where two headings read alike, the source gives them in different places.

Experiments:
[1] = log P determination by HPLC on reversed-phase columns (EEC Directive 79/831 Annex V.A8); format: physicochemical; settings: pH 2.7
In short: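 Calibration used unbranched alkan-2-ones of 3 to 16 carbons with known log P, values interpolated linearly from retention times between neighbouring standards. Acidic-range LC-MS run at pH 2.7, eluents aqueous and acetonitrile formic acid 0.1%, linear gradient 10% to 95% acetonitrile.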

[2] = test system: larvae of the mustard beetle (Phaedon cochleariae); assay: Phaedon test (PHAECO spray treatment); format: in vivo; settings: 168 h, read-out: activity in %
In short: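 Mortality of mustard beetle larvae, expressed as percent killed (100% all, 0% none), assessed 7 days after spraying. Spray liquor made from compound in acetone plus dimethylformamide with alkylaryl polyglycol ether, diluted in emulsifier-containing water to the desired concentration.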

[3] = test system: caterpillars of the armyworm (Spodoptera frugiperda); assay: Spodoptera frugiperda test (SPODFR spray treatment); format: in vivo; settings: 168 h, read-out: activity in %
In short: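 Percent caterpillar mortality read 7 days after infestation (0% none killed, 100% all killed). Treatment was a spray of the acetone/DMF/emulsifier formulation, water-diluted to test concentration, onto Zea mays leaf discs, allowed to dry before larvae were added.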

[4] = reversed-phase C18 HPLC column, HPLC on reversed-phase columns (C 18), EEC Directive 79/831 Annex V.A8, read-out: logP
[5] = HPLC on reversed-phase columns (C 18), EEC Directive 79/831 Annex V.A8, read-out: logP

chromatographic logP [1, 4]	SMILES	chromatographic logP [1]	pest or weed control at 100 g/ha ([2]; 100 g/ha, after 7 days)	pest or weed control at 100 g/ha ([3]; 100 g/ha, after 7 days)	chromatographic logP [1, 5]	pest or weed control at 100 g/ha [2]	pest or weed control at 100 g/ha [3]
	Cc1cc(Cl)cc(C(=O)NC2CCC2)c1NC(=O)c1cc(Cn2ncc(C(F)(F)F)n2)nn1-c1ncccc1Cl [Example 142]	3.64	100%	100%			
	Cc1cc(C#N)cc(C(=O)NC(C)(C)C)c1NC(=O)c1cc(Cn2ncc(-c3cccc(Cl)c3)n2)nn1-c1ncccc1Cl [Example 65]	4.14	100%	100%			
4.14	Cc1cc(I)cc(C(=O)NCC2CC2)c1NC(=O)c1cc(Cn2cc(C(F)(C(F)(F)F)C(F)(F)F)nn2)nn1-c1ncccc1Cl [Example 237]		100%	100%			
	Cc1cc(I)cc(C(=O)NC(C)(C)C)c1NC(=O)c1cc(Cn2cc(C(F)(F)C(F)(F)C(F)(F)F)nn2)nn1-c1ncccc1Cl [Example 334]				4.42	100%	100%
	CCNC(=O)c1cc(I)cc(C)c1NC(=O)c1cc(Cn2ncc(C(F)(F)C(F)(F)C(F)(F)F)n2)nn1-c1ncccc1Cl [Example 369]				4.28	100%	100%
	Cc1cc(I)cc(C(=O)NCC2CC2)c1NC(=O)c1cc(Cn2ncc(C(F)(F)F)n2)nn1-c1ncccc1Cl [Example 163]	3.8	100%	100%			
	CNC(=O)c1cc(C#N)cc(C)c1NC(=O)c1cc(Cn2nc3ccc(C(F)(F)F)cc3n2)nn1-c1ncccc1Cl [Example 102]	3.19	100%	100%			
	Cc1cc(I)cc(C(=O)NCC2CC2)c1NC(=O)c1cc(Cn2cc(C(F)(F)C(F)(F)C(F)(F)F)nn2)nn1-c1ncccc1Cl [Example 333]				4.13	100%	100%
4.08	CC(NC(=O)c1cc(Cl)cc(Cl)c1NC(=O)c1cc(Cn2cc(C(F)(C(F)(F)F)C(F)(F)F)nn2)nn1-c1ncccc1Cl)C1CC1 (stereo not drawn) [Example 242]		100%	100%			
	CNC(=O)c1cc(I)cc(C)c1NC(=O)c1cc(Cn2cc(C(F)(C(F)(F)F)C(F)(F)F)nn2)nn1-c1ncccc1Cl [Example 233]	3.59	100%	100%			
	Cc1cc(C#N)cc(C(=O)NCC2CC2)c1NC(=O)c1cc(Cn2nc(C(F)(F)F)c(C(F)(F)F)n2)nn1-c1ncccc1Cl [Example 395]	3.89	100%	100%			
	CCNC(=O)c1cc(Cl)cc(C)c1NC(=O)c1cc(Cn2ncc(C(F)(F)C(F)(F)C(F)(F)F)n2)nn1-c1ncccc1Cl [Example 367]				4.03	100%	100%
	CNC(=O)c1cc(Cl)cc(C)c1NC(=O)c1cc(Cn2nnc3cc(Br)ccc32)nn1-c1ncccc1Cl [Example 86]	2.94	100%	100%			
	CNC(=O)c1cc(C#N)cc(C)c1NC(=O)c1cc(Cn2cc(-c3ccc(Cl)cc3)nn2)nn1-c1ncccc1Cl [Example 33]	2.75	100%	100%			
4.9	Cc1cc(I)cc(C(=O)NC(C)(C)C)c1NC(=O)c1cc(Cn2ncc(C(F)(C(F)(F)F)C(F)(F)F)n2)nn1-c1ncccc1Cl [Example 268]		100%	100%			
	Cc1cc(Cl)cc(C(=O)NC2CC2)c1NC(=O)c1cc(Cn2ncc(C(F)(C(F)(F)F)C(F)(F)F)n2)nn1-c1ncccc1Cl [Example 264]	4.01	100%	100%			
4.58	Cc1cc(I)cc(C(=O)NCC2CC2)c1NC(=O)c1cc(Cn2ncc(C(F)(C(F)(F)F)C(F)(F)F)n2)nn1-c1ncccc1Cl [Example 269]		100%	100%			
3.91	Cc1cc(Cl)cc(C(=O)NCC2CC2)c1NC(=O)c1cc(Cn2cc(C(F)(C(F)(F)F)C(F)(F)F)nn2)nn1-c1ncccc1Cl [Example 229]		100%	100%			
4.13	CC(C)(C)NC(=O)c1cc(Cl)cc(Cl)c1NC(=O)c1cc(Cn2cc(C(F)(C(F)(F)F)C(F)(F)F)nn2)nn1-c1ncccc1Cl [Example 244]		100%	100%			
	CNC(=O)c1cc(C#N)cc(C)c1NC(=O)c1cc(Cn2cc(-c3cccc(Cl)c3)nn2)nn1-c1ncccc1Cl [Example 36]	2.86	100%	100%			
